Assay results taken from the NIST ThermoML archive (doi:10.1016/j.fluid.2016.07.004).

Conditions: Liquid, X-ray view cell

c1ccccc1 [benzene]
Conditions	vapor or sublimation pressure [kPa]
378.35 K	205
401.25 K	366
421.85 K	572
437.45 K	778
460.35 K	1173
480.45 K	1622
500.15 K	2183
520.05 K	2877
